# Measured values taken from paper PMC10221314 (Pharmaceuticals, 2023).
# Tests used:
# Format in all cases: cell-based
# [1] = biological target: T1, FXR (Homo sapiens, UniProt Q96RI1); assay: Yeast one-hybrid assay of FXR antagonistic activity in HEK-293T cells
# T1 construct: a fusion plasmid of Gal4 DBD-NR-LBD, which included PPARα, PPARβ, PPARγ, RXRα, RXRβ, RXRγ, LXRα, LXRβ, GPBAR, PXR, and FXR; expressed in transfected cells; host or cells: HEK-293T
# T1 sequence (Q96RI1 262-486 limits assumed): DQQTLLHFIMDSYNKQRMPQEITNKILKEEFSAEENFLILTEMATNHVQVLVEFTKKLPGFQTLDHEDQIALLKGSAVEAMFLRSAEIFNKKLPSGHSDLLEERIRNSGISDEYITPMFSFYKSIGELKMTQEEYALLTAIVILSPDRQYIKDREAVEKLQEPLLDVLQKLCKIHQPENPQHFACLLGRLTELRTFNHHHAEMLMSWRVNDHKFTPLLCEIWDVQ
# Experimental: Cell counting: HEK-293T cells in logarithmic growth phase were digested with 0.25% trypsin, collected, and centrifuged. The trypsin-containing medium was discarded, and 2 mL of fresh phenol red-free DMEM medium containing 5% fetal bovine serum was added. The cells were then mixed with the medium to prepare a cell suspension and counted on a cell counting plate.
# Cell plating: A determined number of cells were taken from the cell suspension, diluted with phenol red-free DMEM medium containing 5% fetal bovine serum, and plated at a concentration of 10,000 cells per well (100 µL medium) in a 96-well plate. The plate was then incubated at 37 °C and 5% CO2 for 24 h.
# Cell transfection: Fresh phenol red-free DMEM medium was taken in a sterile environment, and the previously extracted pFXR-Binding plasmid and PG4.35[luc2P-9XGA4UAS-Hygro] plasmid were added. The mixture was stirred and allowed to stand at 23 °C for 3 min. Then, a 3% amount of transfection reagent was added to the mixture, and it was allowed to stand at 23 °C for 15 min. The mixture was then added to the 96-well plate at a volume of 10 µL per well and incubated at 37 °C in a 5% CO2 environment for 24 h.
# The OA derivatives were prepared as 10 mM DMSO stock solutions and further diluted in a concentration gradient, with 10 µL added to each well. The final concentrations of the derivatives ranged from 10 µM to 0.03 µM, with 7 concentration gradients using […] dilution. The test was set with 3 duplicated wells.
# Antagonism activity test: The firefly-Renilla Dual Fluorescence Assay Kit (Promega, #E2940, Madison, WI, USA) was used to measure the antagonism activity of the OA derivatives. Firstly, the firefly fluorescence reagent was added to the 96-well plate at a volume of 70 µL per well and shaken in darkness for 15 min. Then, the fluorescence intensity was measured at a wavelength of 645 ± 30 nm in a microplate reader (BioTek, Winooski, VT, USA). Next, the volume of Renilla reagent was added to the 96-well plate at a volume of 70 µL per well and shaken in darkness for 15 min. The fluorescence intensity was then measured at a wavelength of 525 ± 20 nm.
# Data processing: The fluorescence data of firefly were divided by the fluorescence data of Renilla to remove errors, and the antagonism efficiency was calculated using the following formula: antagonism efficiency (%) = [1 − (FCompds. − FDMSO)/(FCDCA − FDMSO)] × 100%. In the formula, F represents fluorescence intensity. The antagonistic efficiency data were obtained as a concentration–effect curve using Graphpad Prism 8.0 software, and the corresponding IC50 value was calculated.
# [2] = test system: LX-2 cells; assay: Western blot of liver-fibrosis-associated proteins in LX-2 cells and HSC-T6 cells; conditions: 20 μM
# Experimental: The total protein concentration in cell and liver tissue lysates was determined using a BCA kit (Beyotime Biotechnology, P0009). Following immune precipitation with appropriate antibodies overnight at 4 °C and incubation with Protein A/G Plus-agarose (Santa Cruz Biotechnology, sc-2003), immunocomplexes or lysates were subjected to SDS-PAGE gel electrophoresis and transferred onto PVDF membranes. Target proteins were detected using specific primary antibodies and an appropriate secondary antibody, with electrochemiluminescence carried out according to the manufacturer’s instructions with a Tanon 5200 imaging system (Shanghai, China). The internal control utilized was GADPH.
# (A–E) The LX-2 cells underwent a 24 h treatment of 2 ng·mL^−1 TGFβ1, with or without varying concentrations of candidate compounds, following FBS starvation. […] GAPDH/GAPDH was used as the loading control. The mean ± SD values were obtained from three independent assays. […] ANOVA was followed by Tukey’s test for statistical analysis.
# [3] = test system: FXR downstream genes; assay: mRNA expression of FXR downstream genes in HepG2 cells (qRT-PCR); conditions: 10 μM and 1 μM, 24 h
# Experimental: Cells and liver tissue samples were subjected to RNA extraction and purification, followed by reverse transcription of equal amounts of total RNA into […] using a Transcriptor First Strand cDNA Synthesis Kit (Roche). The relative expression levels of the target gene were determined using TaqMan probe/primers with an ABI Q3 quantitative real-time PCR system, while GAPDH/Gapdh was utilized as an internal control for mRNA expression. The fold change in the expression of the target mRNA was calculated using Equation 2^−ΔΔCt.
# (A) Relative mRNA level of SHP; (B) Relative mRNA level of BSEP; (C) Relative mRNA level of CYP7A1; (D) Relative mRNA level of SREBP1c; (E) Relative mRNA level of PEPCK; (F) Expression level of G6Pase. HepG2 cells were seeded in a 6-well plate and treated with DMSO and varying concentrations of compound 10b for 24 h with or without 50 μM of 1. The mRNA levels of SHP, BSEP, CYP7A1, SREBP1c, PEPCK, and G6Pase were quantified and normalized to β-actin expression.
# [4] = in the presence and absence of compound 1 (50 μM)
smiles,measurement,setting,value
"CC1(C)CCC2(C(=O)O)CCC3(C)C(C(OC(=O)CCC(NC(=O)OC(C)(C)C)C(=O)OC(C)(C)C)CC4C5(C)CCC(O)C(C)(C)C5CCC43C)C2C1 [Compound 10b, 3β-hydroxy-12β-(4′-((tert-butoxycarbonyl)amide)-5′-(tert-butoxy)-L-glutamte)oxy-13H-olean-28-oic acid]",IC50,"[1]; HEK-293T cells, CDCA (50 μM) as agonist, mean ± SE of three independent tests",440 ± 150 nM
same,times more potent than 10d,[1]; ratio of IC50 values,8.3
same,content of protein TGFβ1,[2],reduced
same,content of protein TIMP1,[2],reduced
same,content of protein a-SMA,[2],reduced
same,expression of G6Pase (mRNA),[3],inhibited the expression
same,expression of PEPCK (mRNA),[3],inhibited the expression
same,expression of BSEP (mRNA),[3]; [4],inhibit
same,expression of CYP7A1 (mRNA),[3]; [4],increasing the expression
same,expression of SHP (mRNA),[3]; [4],inhibit
same,expression of SREBP1c (mRNA),[3]; [4],inhibit
